Measured values: US8575376B2, “Steroide anionic compounds, method of their production, usage and pharmaceutical preparation involving them” (Ustav Organicke Chemie A Biochemie Akademie Ved Ceske …, priority 2009, dated 2013)
Like-named read-outs stand apart in the source and are kept apart here.

What was measured:
[1] = biological target: T1, recombinant NR1/NR2B receptors (Rattus norvegicus, UniProt P35439+Q00960); assay: Patch-clamp, inhibition of glutamate responses of recombinant NMDA receptors in transfected HEK293 cells; format: cell-based
T1 construct: expressed in transfected cells; host or cells: HEK293 cells (ATCC CRL1573)
T1 sequence (Q00960 27-1482, other chains not shown): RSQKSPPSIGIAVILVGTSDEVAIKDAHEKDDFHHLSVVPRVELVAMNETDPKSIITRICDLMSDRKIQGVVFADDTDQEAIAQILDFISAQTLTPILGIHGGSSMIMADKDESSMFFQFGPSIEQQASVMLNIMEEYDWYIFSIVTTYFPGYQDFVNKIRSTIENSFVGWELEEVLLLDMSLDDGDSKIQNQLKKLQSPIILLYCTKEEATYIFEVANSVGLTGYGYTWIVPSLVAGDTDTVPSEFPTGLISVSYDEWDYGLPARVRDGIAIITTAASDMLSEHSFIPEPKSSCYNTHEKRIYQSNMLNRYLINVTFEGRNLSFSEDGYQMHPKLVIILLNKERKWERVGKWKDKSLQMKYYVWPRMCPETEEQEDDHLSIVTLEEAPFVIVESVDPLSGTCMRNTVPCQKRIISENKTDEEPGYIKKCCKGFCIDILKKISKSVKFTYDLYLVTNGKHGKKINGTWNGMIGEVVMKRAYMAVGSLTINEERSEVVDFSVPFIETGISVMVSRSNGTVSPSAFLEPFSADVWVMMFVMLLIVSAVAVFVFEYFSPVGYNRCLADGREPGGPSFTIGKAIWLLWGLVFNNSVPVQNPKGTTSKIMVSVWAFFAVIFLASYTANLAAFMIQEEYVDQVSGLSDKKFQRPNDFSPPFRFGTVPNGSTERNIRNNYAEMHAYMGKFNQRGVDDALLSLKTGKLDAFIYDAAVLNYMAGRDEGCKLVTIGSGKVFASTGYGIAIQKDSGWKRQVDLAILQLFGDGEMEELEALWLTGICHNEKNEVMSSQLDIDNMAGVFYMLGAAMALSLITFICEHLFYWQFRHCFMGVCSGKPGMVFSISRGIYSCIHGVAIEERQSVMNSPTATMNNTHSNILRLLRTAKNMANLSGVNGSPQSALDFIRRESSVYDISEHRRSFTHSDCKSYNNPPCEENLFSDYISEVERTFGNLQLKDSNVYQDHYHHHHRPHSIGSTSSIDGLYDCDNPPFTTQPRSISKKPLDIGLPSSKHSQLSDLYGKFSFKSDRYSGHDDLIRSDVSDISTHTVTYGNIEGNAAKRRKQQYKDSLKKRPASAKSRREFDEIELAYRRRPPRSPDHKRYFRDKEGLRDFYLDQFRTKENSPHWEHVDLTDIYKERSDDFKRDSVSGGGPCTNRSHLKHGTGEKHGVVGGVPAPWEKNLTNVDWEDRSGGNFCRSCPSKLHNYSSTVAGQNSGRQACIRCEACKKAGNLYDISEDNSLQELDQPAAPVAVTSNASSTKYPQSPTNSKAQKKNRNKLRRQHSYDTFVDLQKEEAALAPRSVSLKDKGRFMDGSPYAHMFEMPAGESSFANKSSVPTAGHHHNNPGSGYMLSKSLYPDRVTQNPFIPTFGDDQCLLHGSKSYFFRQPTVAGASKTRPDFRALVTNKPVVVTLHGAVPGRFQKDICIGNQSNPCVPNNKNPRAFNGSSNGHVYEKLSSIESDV

[2] = system: mice (ICR); assay: Depression-like behavior induced by repeated social defeat, open field; format: in vivo, mouse; conditions: 1 and 10 mg/kg orally, 30 min prior
Procedure: Naive adult male mice (albino out-bred strain ICR, VELAZ s.r.o., Prague, Czech Republic, 30-37 g) were used in this study. Food and water were available ad libitum. Mice were housed either individually without any handling in self-cleaning cages with a grid floor (8×6×13 cm) or in groups of 17-20 in standard plastic cages (38×22×14 cm) with the floors covered with wooden shavings. After 3 weeks, each individually housed mouse was allowed 30 min adaptation in a Plexiglas neutral observation cage (20×20×30 cm) with clean wooden shavings before it was coupled with a group-housed male partner for 4 min/day. […] Animals were housed, and behavioural testing was performed in a different room during the light phase of the constant light-dark cycle with lights on at 6:00 and off at 18:00 h. Temperature was maintained at 21° C., and relative humidity was 50%. The mice were not handled except on the experimental days.
Group-housed males were used for the experiment. […] Over a 3-min testing period, the distance traveled, as a marker of locomotor/exploratory behaviour, in the open field was measured. […] Thirty minutes following the drug administration, the animal was placed into the open field arena and distance traveled was measured, as described before. […]

[3] = system: Long-Evans rats; assay: Scopolamine-induced cognitive deficit in AAPA (model of Alzheimer disease); format: in vivo, rat; conditions: Example 9 1 ml/kg of 1.0 mg/ml i.p. + scopolamine 2.0 mg/kg
Procedure: The effect of the compound from example 9 on an animal model of age-related cognitive decline and neurodegenerative disorders (including Alzheimer disease) is documented. In the present experiment the effect of central muscarinic blockade by systemic administration of scopolamine at dose 2.0 mg/kg on both reinforced retention of the AAPA and re-acquisition of the AAPA in a new environment was investigated (by the standard method described previously; see Vales and Stuchlik, 2005).
The compound from example 9 was dissolved in β-cyclodextrine (at a concentration of 1.0 mg/ml). Animals were injected intraperitoneally with 1 ml/kg b.w. of this solution or with 1 ml/kg b.w. of β-cyclodextrine. All animals thus received the same volume of liquid per body weight in each injection. Injections were delivered 40 min prior to behavioural testing). Scopolamine hydrobromide (scopolamine; Sigma Aldrich) was dissolved in saline (0.9% NaCl, 2.0 mg/ml). Animals were injected intraperitoneally with 1 ml/kg b.w. of this solution or with 1 ml/kg b.w. of saline. All animals thus received the same volume of liquid per body weight in each injection. Injections were delivered 20 min prior to behavioural testing. Adult male hooded rats of the Long-Evans strain (3 months old; weighing 300-400g) was used.
The active allothetic place avoidance apparatus is described in example 28. […]

[4] = Pharmacokinetics in plasma and brain after i.p. injection; format: in vivo, rat
Procedure: In the experiment 40 adult Long-Evans male rats from breeding colony of Institute of Physiology AS CR v.v.i., Prague were used. Rats were treated i.p. with a dose 1 mg/kg of compound from example 9 dissolved in 72 mM of hydroxypropyl-β-cyclodextrine saline solution. Brain and plasma was taken 5 min, 15 min, 30 min, 45 min, 60 min, 90 min, 120 min, 180 min, 24 hours and 48 hours after drug administration. Each brain and blood samples were taken from separate rat. Samples were collected in 4 rats for each time interval. Samples were immediately stored in a −80° C. freezer.
The concentrations of compound from example 9 in rat brain and plasma samples were measured by high performance liquid chromatography (HPLC) coupled with mass spectrometry (Agilent 6320 Ion Trap). Deuteried internal standard (3-d labeled compound from example 9) has been used for ensuring high accuracy of measurement.

[5] = rat, 1 mg/kg i.p., mean of 4 rats

CC(=O)[C@H]1CC[C@H]2[C@@H]3CC[C@@H]4C[C@H](OC(=O)[C@@H](N)CCC(=O)O)CC[C@]4(C)[C@H]3CC[C@]12C [Example 9, 20-Oxo-5β-pregnan-3α-yl L-glutamyl 1-ester]
IC50 ([1]; calculated from relative inhibition with Hill's coefficient 1.2): 73 µM | Relative inhibition effect (%) ([1]; responses to 1 mM glutamate, -60 mV, HEK293 NR1-1a/NR2B, steroid 50, 100 or 200 μM): 77.1 ± 5.2% | hypolocomotion in open field after repeated social defeat [2]: reduced a hypolocomotion in an open field induced by agonistic interactions in mice | scopolamine-induced deficit in AAPA (number of entrances) [3]: tends to be decreased | Tmax ([4]; male, Long-Evans, brain, ip, rat, 1 mg/kg i.p., read-out: Tmax in brain (converted)): 1 h | Cmax ([4]; male, Long-Evans, plasma, ip, rat, 1 mg/kg i.p.): 675 ng/mL | Tmax ([4]; male, Long-Evans, plasma, ip, rat, 1 mg/kg i.p., read-out: Tmax in plasma (converted)): 0.25 h | half-life ([4]; male, Long-Evans, rat, intraperitoneal, 1 mg/kg, plasma, estimated): 4.45 h | AUC ([4]; male, Long-Evans, rat, ip, 1 mg/kg, plasma, estimated, read-out: AUC0_inf i.p. (converted)): 1260 ng·h/mL | Ke ([4]; plasma, estimated): 0.002593 | accumulation in brain tissue ([4]; rat, 1 mg/kg i.p.): not cumulated in brain tissue | blood brain barrier penetration ([4]; rat, 1 mg/kg i.p.): penetrates blood brain barrier | cmax in brain ([4]; rat, 1 mg/kg i.p.): 508 ng/whole brain | brain level after 2 hours [4, 5]: 222 ng/whole brain | brain level after 3 hours [4, 5]: 128 ng/whole brain | brain level after 24 hours [4, 5]: 14 ng/whole brain | brain level after 48 hours [4, 5]: 0.6 ng/whole brain
